In BindingDB's records for doi:10.7270/Q28G8J4C (Broad Institute, 2009) one finds EC50 data, which are given here for 29 compounds.

Bounds are passed on as bounds.

The target of this assay is T1, POsterior Segregation (Caenorhabditis elegans, UniProt G5EF15).
T1 sequence (G5EF15 whole entry): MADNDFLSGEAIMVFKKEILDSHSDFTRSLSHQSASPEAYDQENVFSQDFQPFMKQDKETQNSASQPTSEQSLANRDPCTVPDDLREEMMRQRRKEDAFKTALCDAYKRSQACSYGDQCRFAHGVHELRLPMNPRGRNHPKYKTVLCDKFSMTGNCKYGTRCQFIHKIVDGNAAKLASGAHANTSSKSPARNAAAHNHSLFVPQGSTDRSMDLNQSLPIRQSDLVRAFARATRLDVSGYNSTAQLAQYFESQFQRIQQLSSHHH
Nature of the assay: disruptors of C. elegans POS-1 RNA interaction – biochemical, fluorescence polarization, dose response (AID 1964).

As a reminder, the EC50 is the concentration giving half of the maximal effect. Lower therefore signals higher potency in that assay. The compound `COc1cc(C2NC(=S)N=C(C)C2C(=O)OC(C)C)ccc1OC(C)C` (centres undefined) [4-(3-methoxy-4-propan-2-yloxyphenyl)-6-methyl-2-sulfanylidene-3,4-dihydro-1H-pyrimidine-5-carboxylic acid propan-2-yl ester] came in with an EC50 of over 300 µM.

`O=C(O)c1ccc(NN=CC2=C(N3CCOCC3)C(=Cc3ccccc3)CC2)cc1` [4-[2-[[(3Z)-2-(4-morpholinyl)-3-(phenylmethylene)-1-cyclopentenyl]methylidene]hydrazinyl]benzoic acid] gave an EC50 of 176 µM.

`CC(=O)C1C(c2ccccc2)=NC(=O)NC1c1ccc(O)c(O)c1` (centres undefined) [4-[3,4-bis(oxidanyl)phenyl]-5-ethanoyl-6-phenyl-3,4-dihydro-1H-pyrimidin-2-one]: the EC50 was over 300 µM.

As for `Cc1ccc(-c2c(CCC(C)N=O)oc3ccc(Cl)cc23)o1` (centres undefined) [4-[5-chloro-3-(5-methyl-2-furanyl)-2-benzofuranyl]-2-butanone oxime], the EC50 was over 300 µM.

`Cc1nnc(SC(=Cc2ccc(OCc3ccc(C(=O)O)cc3)cc2)C(=O)O)[nH]1` [4-[[4-[(E)-2-[(5-methyl-1H-1,2,4-triazol-3-yl)sulfanyl]-3-oxidanyl-3-oxidanylidene-prop-1-enyl]phenoxy]methyl]benzoic acid]: the midpoint of the response, the EC50, lay at 17.8 µM.

In turn, `COc1ccc(C(=O)Nc2nnc(CC(=O)NN=Cc3ccc(O)cc3O)s2)cc1` [4-methoxy-N-[5-[2-oxidanylidene-2-[2-[(E)-(2-oxidanyl-4-oxidanylidene-cyclohexa-2,5-dien-1-ylidene)methyl]hydrazinyl]ethyl]-1,3,4-thiadiazol-2-yl]benzamide] returned an EC50 of 125 µM.

In turn, `CC1(C)CC(=O)C2=C(C1)OC(=N)C(C#N)C2c1ccc(OC(=O)N2CCOCC2)cc1` (centres undefined) [4-morpholinecarboxylic acid [4-(2-amino-3-cyano-7,7-dimethyl-5-oxo-6,8-dihydro-4H-1-benzopyran-4-yl)phenyl] ester] yielded an EC50 of over 300 µM.

Compound `Cc1cc(CN=Nc2ccc([N+](=O)[O-])cn2)c(C)n1-c1ccc(C(=O)O)cc1` [4-{2,5-dimethyl-3-[2-(5-nitro-2-pyridinyl)carbonohydrazonoyl]-1H-pyrrol-1-yl}benzoic acid] returned an EC50 of over 300 µM.

On to `Cc1sc2ncnc(N=NC(C)c3ccccn3)c2c1C` (centres undefined) [5,6-dimethyl-N-(1-pyridin-2-ylethylideneamino)thieno[2,3-d]pyrimidin-4-amine], for which the EC50 stood at 23.3 µM.

`Fc1ccc(C2=Nc3ncnn3C(c3ccco3)C2)cc1` (centres undefined) [5-(4-fluorophenyl)-7-(2-furanyl)-1,7-dihydro-[1,2,4]triazolo[1,5-a]pyrimidine] came in with an EC50 of 14.7 µM.

For `NC(=NNC=c1ccc(=C2C=CC(=O)C(C(=O)O)=C2)o1)N[N+](=O)[O-]` [5-(5-{2-[amino(nitroimino)methyl]carbonohydrazonoyl}-2-furyl)-2-hydroxybenzoic acid], the EC50 worked out at 29.9 µM.

For `c1ccc(C2=Nc3nnnn3C(c3cccs3)C2)cc1` (centres undefined) [5-Phenyl-7-thiophen-2-yl-4,7-dihydro-tetrazolo[1,5-a]pyrimidine], the EC50 was over 300 µM.

Take `COc1cc(CN=Nc2[nH]c(=O)nnc2C)ccc1O` [5-[2-[(E)-(3-methoxy-4-oxocyclohexa-2,5-dien-1-ylidene)methyl]hydrazinyl]-6-methyl-2H-1,2,4-triazin-3-one]: a half-maximal response (EC50) required 56.8 µM.

In the case of `COC1=CC(CN=Nc2[nH]c(=O)nnc2C)C=C([N+](=O)[O-])C1=O` (centres undefined) [5-[[(E)-(3-methoxy-5-nitro-4-oxo-1-cyclohexa-2,5-dienylidene)methyl]hydrazo]-6-methyl-2H-1,2,4-triazin-3-one], a half-maximal effect (EC50) was put at 7.98 µM.

In turn, `O=C1N=c2ccc(Br)cc2=C1NNc1nnn[nH]1` [5-bromanyl-3-[2-(2H-1,2,3,4-tetrazol-5-yl)hydrazinyl]indol-2-one] yielded an EC50 of 14 µM.

`Cc1ncc(C=O)c(CNNC(=O)c2cc(Br)ccc2O)c1O` [5-bromanyl-N'-[(Z)-[5-(hydroxymethyl)-2-methyl-3-oxidanylidene-pyridin-4-ylidene]methyl]-2-oxidanyl-benzohydrazide] came in with an EC50 of over 300 µM.

In turn, `Cc1cccc(NNC2=c3cc(Br)ccc3=NC2=O)c1` [5-bromo-3-[2-(3-methylphenyl)hydrazinyl]indol-2-one] showed an EC50 of 68.3 µM.

Take `Cc1ccc(N/N=C2/C(=O)Nc3ccc(F)cc32)cc1` [5-fluoro-3-[2-(4-methylphenyl)hydrazono]indolin-2-one]: the EC50 is over 300 µM.

For `COc1cccc(C2C3CN(C)CCC3=C(C#N)C(=N)C2(C#N)C#N)c1OC` (centres undefined) [6-Amino-8-(2,3-dimethoxy-phenyl)-2-methyl-2,3,8,8a-tetrahydro-1H-isoquinoline-5,7,7-tricarbonitrile], a half-maximal response (EC50) required 2.18 µM. That is a single-digit micromolar value.

The compound `CCCN1CCC2=C(C#N)C(=N)C(C#N)(C#N)C(c3cc(OC)ccc3OC)C2C1` (centres undefined) [6-Amino-8-(2,5-dimethoxy-phenyl)-2-propyl-2,3,8,8a-tetrahydro-1H-isoquinoline-5,7,7-tricarbonitrile] displayed an EC50 of 27.9 µM.

As to `N#CC1=C2CCOCC2C(c2cccnc2)C(C#N)(C#N)C1=N` (centres undefined) [6-Amino-8-pyridin-3-yl-8,8a-dihydro-1H,3H-isochromene-5,7,7-tricarbonitrile], the EC50 was over 300 µM.

`O=C(Cc1nc2cc([N+](=O)[O-])ccc2[nH]c1=O)c1ccccc1` [6-Nitro-3-(2-oxo-2-phenyl-ethylidene)-3,4-dihydro-1H-quinoxalin-2-one] showed an EC50 of 20.1 µM.

`CN1CCC2=C(C#N)C(=N)C(C#N)(C#N)C(c3ccncc3)C2C1` (centres undefined) [6-amino-2-methyl-8-(4-pyridyl)-1,3,8,8a-tetrahydroisoquinoline-5,7,7-tricarbonitrile]: the midpoint of the response, the EC50, lay at 52.9 µM.

For `CCOC(=O)C1=C(C)OC(=N)C(C#N)C1c1ccc(O)c(OC)c1` (centres undefined) [6-amino-5-cyano-4-(4-hydroxy-3-methoxyphenyl)-2-methyl-4H-pyran-3-carboxylic acid ethyl ester], the EC50 was over 300 µM.

In turn, `CN1CCC2=C(C#N)C(=N)C(C#N)(C#N)C(c3cccc(Cl)c3Cl)C2C1` (centres undefined) [6-azanyl-8-[2,3-bis(chloranyl)phenyl]-2-methyl-1,3,8,8a-tetrahydroisoquinoline-5,7,7-tricarbonitrile] had an EC50 of 14.4 µM.

`CCC(C)N1C(=O)C(=CNNc2nc3c(c(=O)n(C)c(=O)n3C)n2C)C(=O)NC1=S` (centres undefined) [8-[2-[(Z)-(1-butan-2-yl-4,6-dioxo-2-sulfanylidene-1,3-diazinan-5-ylidene)methyl]hydrazinyl]-1,3,7-trimethylpurine-2,6-dione]: the EC50 was over 300 µM.

`O=NC1CC2(CC(N=O)C1N=O)OCCO2` (centres undefined) [9-(hydroxyamino)-8-nitroso-1,4-dioxaspiro[4.5]dec-8-en-7-one oxime]: the concentration for a half-maximal effect (EC50) is over 300 µM.

Take `Cc1ccc(N=CC2Sc3ccccc3NC2=O)cc1` (centres undefined) [(2E)-2-(p-toluidinomethylene)-4H-1,4-benzothiazin-3-one]: the EC50 was over 300 µM.

`CN(C)[C@@H]1C(=O)C(C(N)=O)C(=O)[C@@]2(O)C(=O)C3C(=O)c4c(O)cccc4[C@@](C)(O)[C@H]3[C@H](O)[C@@H]12` (stereo partly drawn) [(2E,4S,4aR,5S,5aR,6S,12aS)-2-[azanyl(oxidanyl)methylidene]-4-(dimethylamino)-6-methyl-5,6,10,11,12a-pentakis(oxidanyl)-4,4a,5,5a-tetrahydrotetracene-1,3,12-trione]: the EC50 turned out to be 65.8 µM.
